Values of other authors in patent publication US20250177320A1 (CinRx Pharma, LLC, priority 2017, published 2025).

In the case of `Oc1cc(O)cc(O)c1` [Phloroglucinol, 1,3,5-benzenetriol], the “bioavailability (absorption)” value (after an oral dose) is listed as 47%, the plasma half-life (plasma) is listed as 1.5 h and the peak blood concentration (single oral dose of 160 mg) is listed as 677 ng/mL. For the same compound, the “time to peak blood concentration” value (single oral dose of 160 mg) was 20 min.
